Test results taken from patent publication US7368254B2, “Lipid-based systems for targeting diagnostic agents” (Liplasome Pharma A/S, priority 2000, dated 2008).
Entries after “also recorded” stand apart in the source; their conditions may differ.

Assays:
extracellular PLA2 = assay: Effect of cholesterol incorporated into liposomes on extracellular PLA2 activity (data not shown); type: biochemical
Text: Short-chain phospholipids, such as didecanoyl phosphatidylcholine (DCPC), activate extracellular PLA2.

[1] = i.v., 50 mg/kg
Procedure: Groups of mice (n=5/group; weight 18-22 g) were treated i.v. with buffer (PBS), ET-18-OCH3 (50 mg/kg), and liposomes composed of 1-O-DPPC with 5 mol % 1-O-DPPE-PEG2000 (68.7 and 137.5 mg/kg). 30 min after injection, 100 μl blood was collected into heparinised tubes directly from decapitated, CO2-anesthetised mice. The blood was centrifuged at 500×G for 10 min, and plasma was removed and stored at −20° C. until analysed.
25 μl plasma was mixed with 2,5 ml PBS or 2.5 ml 10% triton X-100.

[2] = test system: human red blood cells (RBC); assay: Hemolysis assay; settings: 37° C., 20 hours, FIG. 6
Procedure: Briefly, each sample was serially diluted with phosphate buffered saline (PBS), and 0.5 ml of each dilute suspension was mixed with 0.5 ml washed human red blood cells (RBC) [4% in PBS (v/v)]. Sample and standard were placed in a 37° C. incubator and agitated for 20 hours. Tubes were centrifuged at low speed (2000×G) for 10 minutes and 200 μl of the supernatant was quantitated by absorbance at 550 nm. 100 percent hemolysis was defined as the maximum amount of hemolysis obtained from the detergent Triton X-100.
The lipids were hydrated in phosphate buffered saline (PBS). 1-O-octadecyl-2-O-methyl-sn-glycero-3-phosphocholine (ET-18-OCH3) in PBS was included in the assay as a reference.
Briefly, each sample was serially diluted with PBS, and 0.5 ml of each dilute suspension of 1-O-DPPC liposomes were mixed with 0.5 ml washed human red blood cells (RBC) [4% in PBS (v/v)]. For controls, 0.5 ml of the red blood cell suspension was mixed with either 0.5 ml buffer solution (negative hemolysis control) or 0.5 ml water (positive hemolysis control). Samples and standard were placed in a 37° C. incubator and agitated for 20 hours. Tubes were centrifuged at low speed (2000×G) for 10 minutes to form RBCs pellets. 200 μl of the supernatant was quantitated by absorbance at 550 nm using a Perkin-Elmer 320 scanning spectrophotometer. […]

[3] = Calcein release across target membrane on adding lyso-phospholipid and fatty acid, in the absence of PLA2; settings: target membranes 25 μM; 39° C.; pH 7.5; FIG. 13
Procedure: Total release after 20 min of the fluorescent model drug and/or contrast agent calcein across the target membrane as a function of adding increasing amounts of lyso-palmitoyl phospholipid and palmitic acid, separately, and in a 1:1 mixture. The concentration of the target membranes is 25 μM in a HEPES buffer with pH=7.5 at a temperature of 39° C.
The experimental model system consists of bare liposomes, polymer-coated liposome carrier and a model target membrane. The carrier is a 100 nm unilamellar liposome made of dipalmitoyl phosphatidylcholine lipids (DPPC) with 2.5 mol % lipopolymer of the type dipalmitoyl phosphatidylethanolamine (DPPE)-PEG2000. The target membrane is another liposome made of 1,2-O-dioctadecyl-sn-glycero-phosphatidylcholine (D-O-SPC) which is a phospholipid where the acyl linkages of the stearoyl chains are ether bonds. In contrast to DPPC, D-O-SPC is inert towards PLA2-catalysed hydrolysis thereby mimicking the stability of an intact target cell membrane toward degradation by its own enzymes. […] The permeation of calcein across the D-O-SPC target membrane is subsequently monitored by the increase in fluorescence. […]

[4] = biological target: T1, phospholipase A2 (A. piscivorus piscivorus) (Agkistrodon piscivorus piscivorus, UniProt P51972); settings: 0.150 mM micelles, 150 nM PLA2, 45° C.
T1 sequence (P51972 1-123): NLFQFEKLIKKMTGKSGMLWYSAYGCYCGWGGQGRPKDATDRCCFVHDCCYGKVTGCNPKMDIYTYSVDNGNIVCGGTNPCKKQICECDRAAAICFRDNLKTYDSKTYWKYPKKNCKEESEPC
Procedure: The hydrolysis of micelles composed DSPE-PEG750 was followed by analysis of the amount of stearic acid generated. The catalytic reaction was initiated by adding 8.9 μL of a 42 μM PLA2 (150 nM) stock solution to 2.5 ml a thermostated micelle suspension of DSPE-PEG750 (0.150 mM) equilibrated at 45° C. for 600 seconds prior to addition of PLA2. The characteristic burst behaviour of PLA2 towards the micelles is signalled by a sudden increase in the intrinsic fluorescence from PLA2 at 340 nm after excitation at 285 nm followed by a concomitant decrease in the 90° light scattering from the lipid suspension (Hønger et al., Biochemistry 35, 9003-9006). Samples for HPLC analysis of the amount of stearic acid generated were taken before adding PLA2 and 100 sec after the observed lag-time. […] HPLC analysis was made using a 5 μm diol column, a mobile phase composed of chloroform/methanol/water (730:230:30, v/v) and an evaporative light scattering detector (see example 2).

[5] = biological target: T2, Snake venom PLA2 (Agkistrodon piscivorus piscivorus) (Agkistrodon piscivorus piscivorus, UniProt P51972); assay: PLA2-controlled release of calcein across non-hydrolysable D-O-SPC target membrane (carrier liposomes or micelles); type: biochemical; settings: carrier liposomes 25 μM; 25 nM PLA2; 37° C.; FIG. 12a
T2 construct: Purified snake-venom phospholipase A2; from tissue
T2 sequence (P51972 1-123): T1 sequence (P51972 1-123)
Procedure: Multilamellar model membrane target liposomes were made in the presence of fluorescent calcein in a self-quenching concentration of 20 mM by hydrating a film of 1,2-O-dioctadecyl-sn-glycero-3-phosphatidylcholines (D-O-SPC) in a HEPES buffer solution at pH=7.5 for one hour at 10° C. above the phase transition temperature (Tm=55° C.). […] The unilamellar liposomes were rapidly cooled to a temperature below the transition temperature, and the calcein-containing liposomes were separated from free calcein using a chromatographic column packed with Sephadex G-50. […] Calcein release from the target liposomes is determined by measuring the fluorescent intensity at 520 nm after excitation at 492 nm.
Unilamellar liposomes were made by extruding the multilamellar liposomes ten times through two stacked 100 nm polycarbonate filters.

CC(C)CCC[C@@H](C)[C@H]1CC[C@H]2[C@@H]3CC=C4C[C@@H](O)CC[C@]4(C)[C@H]3CC[C@]12C [cholesterol]
effect on extracellular PLA2 (extracellular PLA2; large amount (≈20 mol %) incorporated into liposomes): deactivated
effect on extracellular PLA2 (extracellular PLA2; small amount (≈3 mol %)): activates

CCCCCCCCCCCCCCCCCCOC[C@H](COP(=O)([O-])OCC[N+](C)(C)C)OC [ET-18-OCH3]
outcome of treated mice (in words) [1]: died within the 30 minutes period
hemolysis at low concentrations [2]: significant degree of hemolysis

CCCCCCCCCCCCCCCC(=O)O [fatty acid, palmitic acid]
rate of calcein release across target membrane in the absence of PLA2 [3]: increased rate of calcein release

di-octadecanoyl-sn-glycero-3-phosphoethanolamine-N-[methoxy(polyethylene glycol)-750 [DSPE-PEG750]
percentage hydrolysis of DSPE-PEG750 to lyso-SPE-PEG750 and stearic acid ([4]; 100 sec after lag-time): 100%
observed lag time [4]: 10 s

CCCCCCCCCC(=O)OC[C@H](COP(=O)([O-])OCC[N+](C)(C)C)OC(=O)CCCCCCCCC [DCPC, didecanoyl phosphatidylcholine]
rate of calcein release across target membrane versus bare DPPC carriers [5]: very fast; also recorded: further augmentation of the rate of release
